Reference: patent US9463188B2, “Osteopontin production inhibitor containing dictyopyrone derivative or dihydrodictyopyrone derivative as active ingredient” (TOHOKU UNIVERSITY, priority 2013, dated 2016)

Tested on: OPN production by human liver cancer-derived cell line HepG2
Test: OPN production by HepG2 cells (Human Osteopontin Immunoassay, per mg protein)
Format: cell-based
Conditions: 2-day culture; for suppression of OPN production vs control group: significance level less than 1%
Description: The confirmation test was performed in the following manner. The compound 3 wad added to a culture liquid containing cells of a human non-small cell lung cancer-derived cell line A549 or a human liver cancer-derived cell line HepG2, and the amount of OPN in culture supernatant after 2-day culture was measured using Human Osteopontin Immunoassay kit (R&D systems) and compared with the OPN amount of a compound 3-free group (control group).
The compound 3 has also cell growth inhibitory effect. Therefore, in order to properly evaluate the OPN production-suppressing effect of the compound 3, 1×CCLR used in luciferase assay was added to cells remaining in each well after removal of culture supernatant to prepare a cell lysate, and the amount of protein in the cell lysate was measured using BCA Protein Assay Kit (Thermo Scientific). The influence of addition of the compound 3 on the amount of OPN production was evaluated by comparison of the amount of OPN per milligram of protein.
First, A549 cells or HepG2 cells were suspended in DMEM medium containing 10% FCS and 1% P/S at 4×10^4 cells/mL to obtain a cell suspension, and 500 μL of the cell suspension was dispensed into each well of a 24-well plate. In order to perform the test in triplicate, 3 wells were prepared for a control group and 3 wells were prepared for each test compound-treated group at each concentration. The 24-well plate was incubated in a CO2 incubator (at 37° C. and 5% CO2) for 24±4 hours.
The 3.75 mmol/L compound 3 solution or the 7.5 mmol/L compound 3 solution was added in an amount of 2 μL to each well in which HepG2 cells were cultured. Only DMSO was added to each control well in an amount of 2 μL.
The 24-well plate was rocked back and forth and side to side to mix the solution in each well, and was then incubated in a CO2 incubator (at 37° C. and 5% CO2) for 48±4 hours. Then, the total amount of culture supernatant was transferred into a 1.5 mL tube, and 500 μL of D-PBS(−) was added to each well in which cells are remained. […]

SMILES: CCCCCCCCCCCC(=O)[C@H]1C(=O)O[C@@H](C)C[C@@H]1C [Chemical formula 3]
- suppression of OPN production vs control group (15 μmol/L): significantly suppressed
- amount of OPN produced relative to control group (30 μmol/L): reduced to half or less
- suppression of OPN production vs control group (30 μmol/L): significantly suppressed
